Ends that are not written are not given here. Peptide text beside a SMILES is read from it.
Legend:
293T-ACE2^+ cells = experiment: Cytotoxicity by CCK-8 in 293T-ACE2^+ cells; type: cell-based, human; details: 1 nM to 100 μM, 48 h; FIGS. 9A-9C, 10A-10C
Experimental: ; • (3) The cells were washed once with PBS after discarding supernatant after culturing, 120 μL of cell counting kit-8 (CCK-8) working solution (CCK-8 working solution is obtained by mixing CCK8 stock solution and complete medium in a volume ratio of 1:10, CCK8 stock solution was purchased from Dojindo Molecular Technologies) was added to each well. After mixing, the system was incubated at 37° C. for 3 h, then the absorbance values at 450 nm and 630 nm (reference wavelength) were detected to calculate the cell viability.

[1] = target: spike protein of the SARS-CoV-2 pseudovirus (PSV) (SARS-CoV-2), P0DTC2; experiment: cell-based or functional assay

Molecule | effect on 293T-ACE2^+ cells viability (CCK-8) (293T-ACE2^+ cells) | neutralization ability to SARS-CoV-2 pseudovirus [1]
CC(C)C[C@H](NC(=O)[C@@H](NC(=O)[C@H](CO)NC(=O)[C@H](CO)NC(=O)[C@H](CC(=O)O)NC(=O)[C@H](Cc1ccccc1)NC(=O)[C@@H](NC(=O)[C@H](CC(=O)O)NC(=O)[C@H](CCCNC(=N)N)NC(=O)[C@@H]1CCCN1C(=O)[C@H](Cc1ccc(O)cc1)NC(=O)[C@H](Cc1ccc(O)cc1)NC(=O)[C@@H](NC(=O)CNC(=O)[C@H](CC(=O)O)NC(=O)CNC(=O)[C@@H]1CCCN1C(=O)[C@@H]1CCCN1C(=O)[C@@H]1CCCN1C(=O)[C@@H]1CCCN1C(=O)[C@H](CS)NC(=O)[C@@H](N)CS)C(C)C)C(C)C)C(C)C)C(=O)N[C@@H](CC(=O)O)C(=O)N[C@@H](CO)C(=O)N[C@H](C(=O)N[C@@H](CCC(N)=O)C(=O)N[C@@H](CCCNC(=N)N)C(=O)O)[C@@H](C)O [KVp-N1] (H-CCPPPPGDGVYYPRDVFDSSVLDSTQR-OH) | not significant | –
CC[C@H](C)[C@H](NC(=O)[C@H](CCCNC(=N)N)NC(=O)[C@H](CC(=O)O)NC(=O)[C@H](CCCNC(=N)N)NC(=O)[C@H](Cc1ccccc1)NC(=O)[C@@H]1CCCN1C(=O)[C@H](CC(=O)O)NC(=O)[C@H](CC(C)C)NC(=O)[C@H](CC(N)=O)NC(=O)[C@H](CO)NC(=O)[C@H](CC(=O)O)NC(=O)[C@H](CC(=O)O)NC(=O)[C@H](Cc1ccccc1)NC(=O)[C@H](CC(C)C)NC(=O)[C@H](CC(=O)O)NC(=O)CNC(=O)[C@@H]1CCCN1C(=O)[C@@H]1CCCN1C(=O)[C@@H]1CCCN1C(=O)[C@@H]1CCCN1C(=O)[C@H](CS)NC(=O)[C@@H](N)CS)C(=O)N[C@@H](CO)C(=O)N[C@H](C(=O)N[C@@H](CCCNC(=N)N)C(=O)N[C@@H](CCCNC(=N)N)C(=O)O)[C@@H](C)O [KVp-R14] (H-CCPPPPGDLFDDSNLDPFRDRISTRR-OH) | not significant | –
GDGVYYPRDVFDSSVLDSTQR [KVp-N1N] | not significant | –
GDLFDDSNLDPFRDRISTRR [KVp-R14N] | not significant | –
CCPPPPGDGVYYPRDVFDSSVLDSTQR (modifications not checked) [polypeptide KVp-N1] | – | 50%
CCPPPPGDLFDDSNLDPFRDRISTRR (modifications not checked) [polypeptide KVp-R14] | – | 50%

From US20260234196A1 (priority 2021, published 2026)
